{"source": "patent US6426369B1", "about": "“Oxethazaine as antimicrobial agent” (Eisai Co., Ltd., priority 1997, dated 2002)", "key": {"[1]": {"test": "Acute toxicity test, single oral dose, mice", "conditions": "Slc:ICR, mouse, in vivo, read-out: LD50 (Oral administration)", "procedure": "A toxicity test was conducted by orally administering a single dose into 7- to 8-weeks old Slc:SD rats and Slc:ICR mice, each group consisting of 5 females and 5 males (medium; physiological saline)."}, "Gram-positive bacteria": {"tested_on": "Gram-positive bacteria", "test": "Antimicrobial activity (MIC) of oxethazaine and structure analogues against Gram-positive bacteria", "format": "cell-based"}, "H. pylori": {"tested_on": "H. pylori", "test": "Antimicrobial activity test 6: oxethazaine in combination with an antibiotic (AMPC, CAM, RXM), checker board method", "format": "cell-based, Helicobacter pylori", "set-up": "key to growth of H. pylori: “−” indicates the inhibited growth of H. pylori (presence of antimicrobial activity); “+” indicates the growth of H. pylori (absence of antimicrobial activity)", "description": "The effect of combined use with amoxicillin (AMPC), clarithromycin (CAM) or roxithromycin (RXM) was examined in the same manner as in antimicrobial activity test 1, using the checker board method."}}, "note": "Read-outs that look alike come from different tables or passages of the source."}
{"smiles": "CN(C(=O)CN(CCO)CC(=O)N(C)C(C)(C)Cc1ccccc1)C(C)(C)Cc1ccccc1", "note": "[Oxethazaine, 2,2′-[(2-hydroxyethyl)amino]bis[N-(1,1-dimethyl-2-phenylethyl)-N-methylacetamide]]", "values": [{"measurement": "LD50", "setting": "[1]; female, Mouse ♀", "result": "≥ 1000", "unit": "mg/kg"}, {"measurement": "LD50", "setting": "[1]; male, Mouse ♂", "result": 1230, "unit": "mg/kg"}, {"measurement": "MIC", "setting": "Gram-positive bacteria; Enterococcus faecalis, E. faecalis RIMD 3116001", "result": 25, "unit": "µg/mL"}, {"measurement": "MIC", "setting": "Gram-positive bacteria; Staphylococcus aureus, FDA209, S. aureus FDA 209-P", "result": 12.5, "unit": "µg/mL"}, {"measurement": "MIC", "setting": "Gram-positive bacteria; Staphylococcus epidermidis, ATCC12228, S. epidermidis ATCC 12228", "result": 6.25, "unit": "µg/mL"}, {"measurement": "effect on Gram-positive bacteria", "setting": "Gram-positive bacteria; conclusion", "result": "excellent effect"}, {"measurement": "growth of H. pylori", "setting": "H. pylori; 89-355, oxethazaine 3.13 + CAM 0 μg/ml", "result": "+"}, {"measurement": "growth of H. pylori", "setting": "H. pylori; 89-355, oxethazaine 6.25 + CAM 0 μg/ml", "result": "+"}, {"measurement": "growth of H. pylori", "setting": "H. pylori; 89-355, oxethazaine 12.5 + CAM 0 μg/ml", "result": "−"}, {"measurement": "growth of H. pylori", "setting": "H. pylori; 89-355, oxethazaine 25 + CAM 0 μg/ml", "result": "−"}, {"measurement": "growth of H. pylori", "setting": "H. pylori; 89-355, oxethazaine 50 + CAM 0 μg/ml", "result": "−"}, {"measurement": "growth of H. pylori", "setting": "H. pylori; 89-355, oxethazaine 100 + CAM 0 μg/ml", "result": "−"}, {"measurement": "growth of H. pylori", "setting": "H. pylori; 89-357, oxethazaine 3.13 + CAM 0 μg/ml", "result": "+"}, {"measurement": "growth of H. pylori", "setting": "H. pylori; 89-357, oxethazaine 6.25 + CAM 0 μg/ml", "result": "+"}, {"measurement": "growth of H. pylori", "setting": "H. pylori; 89-357, oxethazaine 12.5 + CAM 0 μg/ml", "result": "+"}, {"measurement": "growth of H. pylori", "setting": "H. pylori; 89-357, oxethazaine 25 + CAM 0 μg/ml", "result": "−"}, {"measurement": "growth of H. pylori", "setting": "H. pylori; 89-357, oxethazaine 50 + CAM 0 μg/ml", "result": "−"}, {"measurement": "growth of H. pylori", "setting": "H. pylori; 89-357, oxethazaine 100 + CAM 0 μg/ml", "result": "−"}, {"measurement": "growth of H. pylori", "setting": "H. pylori; 90-388, oxethazaine 3.13 + CAM 0 μg/ml", "result": "+"}, {"measurement": "growth of H. pylori", "setting": "H. pylori; 90-388, oxethazaine 6.25 + CAM 0 μg/ml", "result": "+"}, {"measurement": "growth of H. pylori", "setting": "H. pylori; 90-388, oxethazaine 12.5 + CAM 0 μg/ml", "result": "+"}, {"measurement": "growth of H. pylori", "setting": "H. pylori; 90-388, oxethazaine 25 + CAM 0 μg/ml", "result": "−"}, {"measurement": "growth of H. pylori", "setting": "H. pylori; 90-388, oxethazaine 50 + CAM 0 μg/ml", "result": "−"}, {"measurement": "growth of H. pylori", "setting": "H. pylori; 90-388, oxethazaine 100 + CAM 0 μg/ml", "result": "−"}, {"measurement": "growth of H. pylori", "setting": "H. pylori; 90-390, oxethazaine 3.13 + CAM 0 μg/ml", "result": "+"}, {"measurement": "growth of H. pylori", "setting": "H. pylori; 90-390, oxethazaine 6.25 + CAM 0 μg/ml", "result": "+"}, {"measurement": "growth of H. pylori", "setting": "H. pylori; 90-390, oxethazaine 12.5 + CAM 0 μg/ml", "result": "+"}, {"measurement": "growth of H. pylori", "setting": "H. pylori; 90-390, oxethazaine 25 + CAM 0 μg/ml", "result": "−"}, {"measurement": "growth of H. pylori", "setting": "H. pylori; 90-390, oxethazaine 50 + CAM 0 μg/ml", "result": "−"}, {"measurement": "growth of H. pylori", "setting": "H. pylori; 90-390, oxethazaine 100 + CAM 0 μg/ml", "result": "−"}, {"measurement": "growth of H. pylori", "setting": "H. pylori; EH 12, oxethazaine 3.13 + CAM 0 μg/ml", "result": "+"}, {"measurement": "growth of H. pylori", "setting": "H. pylori; EH 12, oxethazaine 6.25 + CAM 0 μg/ml", "result": "+"}, {"measurement": "growth of H. pylori", "setting": "H. pylori; EH 12, oxethazaine 12.5 + CAM 0 μg/ml", "result": "−"}, {"measurement": "growth of H. pylori", "setting": "H. pylori; EH 12, oxethazaine 25 + CAM 0 μg/ml", "result": "−"}, {"measurement": "growth of H. pylori", "setting": "H. pylori; EH 12, oxethazaine 50 + CAM 0 μg/ml", "result": "−"}, {"measurement": "growth of H. pylori", "setting": "H. pylori; EH 12, oxethazaine 100 + CAM 0 μg/ml", "result": "−"}, {"measurement": "growth of H. pylori", "setting": "H. pylori; EH 13, oxethazaine 3.13 + CAM 0 μg/ml", "result": "+"}, {"measurement": "growth of H. pylori", "setting": "H. pylori; EH 13, oxethazaine 6.25 + CAM 0 μg/ml", "result": "+"}, {"measurement": "growth of H. pylori", "setting": "H. pylori; EH 13, oxethazaine 12.5 + CAM 0 μg/ml", "result": "+"}, {"measurement": "growth of H. pylori", "setting": "H. pylori; EH 13, oxethazaine 25 + CAM 0 μg/ml", "result": "−"}, {"measurement": "growth of H. pylori", "setting": "H. pylori; EH 13, oxethazaine 50 + CAM 0 μg/ml", "result": "−"}, {"measurement": "growth of H. pylori", "setting": "H. pylori; EH 13, oxethazaine 100 + CAM 0 μg/ml", "result": "−"}, {"measurement": "growth of H. pylori", "setting": "H. pylori; strain 90-388, oxethazaine 3.13 μg/ml, AMPC 0", "result": "+"}, {"measurement": "growth of H. pylori", "setting": "H. pylori; strain 90-388, oxethazaine 6.25 μg/ml, AMPC 0", "result": "+"}, {"measurement": "growth of H. pylori", "setting": "H. pylori; strain 90-388, oxethazaine 12.5 μg/ml, AMPC 0", "result": "+"}, {"measurement": "growth of H. pylori", "setting": "H. pylori; strain 90-388, oxethazaine 25 μg/ml, AMPC 0", "result": "−"}, {"measurement": "growth of H. pylori", "setting": "H. pylori; strain 90-388, oxethazaine 50 μg/ml, AMPC 0", "result": "−"}, {"measurement": "growth of H. pylori", "setting": "H. pylori; strain 90-388, oxethazaine 100 μg/ml, AMPC 0", "result": "−"}, {"measurement": "growth of H. pylori", "setting": "H. pylori; strain 90-390, oxethazaine 3.13 μg/ml, AMPC 0", "result": "+"}, {"measurement": "growth of H. pylori", "setting": "H. pylori; strain 90-390, oxethazaine 6.25 μg/ml, AMPC 0", "result": "+"}, {"measurement": "growth of H. pylori", "setting": "H. pylori; strain 90-390, oxethazaine 12.5 μg/ml, AMPC 0", "result": "+"}, {"measurement": "growth of H. pylori", "setting": "H. pylori; strain 90-390, oxethazaine 25 μg/ml, AMPC 0", "result": "−"}, {"measurement": "growth of H. pylori", "setting": "H. pylori; strain 90-390, oxethazaine 50 μg/ml, AMPC 0", "result": "−"}, {"measurement": "growth of H. pylori", "setting": "H. pylori; strain 90-390, oxethazaine 100 μg/ml, AMPC 0", "result": "−"}, {"measurement": "growth of H. pylori", "setting": "H. pylori; strain 90-397, CAM 0 μg/ml (oxethazaine alone), oxethazaine μg/ml by row r6-r11: 100, 50, 25, 12.5, 6.25, 3.13", "result": "+"}, {"measurement": "growth of H. pylori", "setting": "H. pylori; strain 90-397, CAM 0.006 μg/ml, oxethazaine μg/ml: 100, 50, 25, 12.5, 6.25, 3.13, 0", "result": "+"}, {"measurement": "growth of H. pylori", "setting": "H. pylori; strain 90-397, CAM 0.012 μg/ml, oxethazaine μg/ml: 100, 50, 25, 12.5, 6.25, 3.13, 0", "result": "+"}, {"measurement": "growth of H. pylori", "setting": "H. pylori; strain 90-397, CAM 0.024 μg/ml, oxethazaine μg/ml: 100, 50, 25, 12.5, 6.25, 3.13, 0", "result": "+"}, {"measurement": "growth of H. pylori", "setting": "H. pylori; strain 90-397, CAM 0.05 μg/ml, oxethazaine μg/ml: 100, 50, 25, 12.5, 6.25, 3.13, 0", "result": "+"}, {"measurement": "growth of H. pylori", "setting": "H. pylori; strain 90-397, CAM 0.1 μg/ml, oxethazaine μg/ml: 100, 50, 25, 12.5, 6.25, 3.13, 0", "result": "−"}, {"measurement": "growth of H. pylori", "setting": "H. pylori; strain 90-397, CAM 0.2 μg/ml, oxethazaine μg/ml: 100, 50, 25, 12.5, 6.25, 3.13, 0", "result": "−"}, {"measurement": "growth of H. pylori", "setting": "H. pylori; strain 90-397, CAM 0.4 μg/ml, oxethazaine μg/ml: 100, 50, 25, 12.5, 6.25, 3.13, 0", "result": "−"}, {"measurement": "growth of H. pylori", "setting": "H. pylori; strain 90-397, CAM 0.8 μg/ml, oxethazaine μg/ml: 100, 50, 25, 12.5, 6.25, 3.13, 0", "result": "−"}]}
